{"source": "paper PMC10816934", "about": "“Targeting the Melanocortin 1 Receptor in Melanoma: Biological Activity of α-MSH–Peptide Conjugates” (International Journal of Molecular Sciences, 2024)", "key": {"[1]": {"test_system": "B16 murine melanoma cell line", "test": "In vitro antiproliferative activity, MTT assay", "format": "cell-based, mouse", "details": "for IC50: MTT assay, 0.8–100 μM in serum-free medium 24 h, then 48 h culture, mean ± SD of two or three independent experiments; for Relative Potency: ratio of IC50 values of free Dau and conjugate", "excerpt": "(§1) The following cell cultures were used for the biological evaluation of the synthetic melanoma-specific peptide–drug (Dau–α-MSH) conjugates: A2058 (human skin melanoma, CVCL_1059), M24 (human metastatic skin melanoma, CVCL_D032), OCM-1 (human ocular choroidal melanoma-1, CVCL_6934), OCM-3 (human ocular choroidal melanoma-3, CVCL_6937), WM983A (human metastatic skin melanoma, CVCL_6808), WM983B (human metastatic skin melanoma CVCL_6809), SK-MEL-202 (human skin melanoma, ATCC HTB-68) and B16 (mouse melanoma, ATCC: CRL-6475). Cells were maintained in RPMI-1640 (Lonza, Basel, Switzerland), supplied with 10% FBS (fetal bovine serum; BioSera, Nuaille, France), L-glutamine, and 1% penicillin–streptomycin (from 10 000 units penicillin and 10 mg streptomycin/mL, Gibco, Dublin, Ireland) at 37 °C in a 5% CO2 atmosphere. No mycoplasma contamination was detected in the cell cultures.\n(§2) The in vitro cytostatic effect of Dau–α-MSH conjugates was determined by two different assays. The full-length Dau–α-MSH conjugates were investigated by MTT assay using human and murine melanoma cell cultures. For determination of the cytostatic effect of these conjugates, the cells were treated with the compounds at 0.8–100 μM concentration range dissolved in the corresponding serum-free media for 24 h. After incubation, the treating solutions were removed, the cells were washed two times with serum-free medium and cultured for 48 h in the appropriate serum-containing cell culture medium. On the fourth day, the MTT assay was carried out to determine the IC50 values of the compounds. IC50 is the concentration that inhibits cell proliferation by 50%. Nonlinear regression analysis was performed with Prism 6 software (GraphPad, La Jolla, CA, USA) to generate sigmoidal dose–response curves, from which the 50% inhibitory concentration (IC50) values of the compounds were calculated and presented as micromolar (µM) units. The experiments were done in triplicate, and each experiment was repeated twice."}, "[2]": {"test_system": "M24 human melanoma cell line", "test": "In vitro antiproliferative activity, MTT assay", "format": "cell-based", "details": "for IC50: MTT assay, 0.8–100 μM in serum-free medium 24 h, then 48 h culture, mean ± SD of two or three independent experiments; for Relative Potency: ratio of IC50 values of free Dau and conjugate", "excerpt": "as §1, §2"}, "[3]": {"test_system": "WM983B human melanoma cell line", "test": "In vitro antiproliferative activity, MTT assay", "format": "cell-based", "details": "for IC50: MTT assay, 0.8–100 μM in serum-free medium 24 h, then 48 h culture, mean ± SD of two or three independent experiments; for Relative Potency: ratio of IC50 values of free Dau and conjugate", "excerpt": "as §1, §2"}, "[4]": {"test_system": "A2058 human melanoma cell line", "test": "In vitro antiproliferative activity, MTT assay", "format": "cell-based", "details": "for IC50: MTT assay, 0.8–100 μM in serum-free medium 24 h, then 48 h culture, mean ± SD of two or three independent experiments; for Relative Potency: ratio of IC50 values of free Dau and conjugate", "excerpt": "as §1, §2"}, "[5]": {"test_system": "subcutaneous B16 murine melanoma in C57BL/6 male mice", "test": "In vivo antitumor effect, subcutaneous B16 melanoma allograft", "details": "for Increase of animal bodyweight at the end of the experiment in comparison to the start: B16-bearing C57BL/6 mice, conjugates 10 mg Dau content/kg i.p. days 9, 13, 15, 17, free Dau 1 mg/kg days 9, 17; for Animal body weight (Table S1): change at end compared to start; for Animal body weight (Table S1) / Tumor weigh in % (Table S1): minus = decrease; for Animal body weight (Table S1) / Tumor weigh in % (Table S1) / Tumor volume in % (Table S1) / Tumor volume in mm3 (Table S1): free Dau 1 mg/kg; for Tumor weigh in % (Table S1) / Tumor volume in % (Table S1) / Tumor volume in mm3 (Table S1): change compared to control group; for Tumor volume in % (Table S1) / Tumor volume in mm3 (Table S1): minus = inhibition", "procedure": "In the first experiment, B16 murine melanoma cells were subcutaneously (s.c.) injected into side of the latero-abdominal region of 35 C57BL/6 male mice (20–28 g), which murine strain is syngeneic for the B16 melanoma tumor cell line [59, 60], 6.5 ×·10^5 cells in a volume of 200 µL M199 medium was inoculated per animal. Mice were randomized in a stratified procedure considering two main factors. The primary factor was to obtain groups with the most equal tumor sizes, the secondary factor was to have groups in which the weight of mice are the most equal. The treatment started 9 days after cell inoculation when average tumor volume was 30 mm^3. Compounds were dissolved in saline solution (Teva, Debrecen, Hungary), and administered via i.p. injection in a volume of 0.1 mL per 10 g of bodyweight. […] Animal weight and tumor volumes were measured initially when the treatment started and at periodic intervals following treatment. A digital caliper was used to measure the longest (a) and the shortest diameter (b) of a given tumor. The tumor volume was calculated using the formula V = ab^2 × π/6, whereby a and b represent the measured parameters (length and width). Termination of the experiment was 20 days after cell inoculation, i.e., 12 days after treatment started, since the average volume of the tumors in the control group reached over 1800 mm^3. The mice from all groups were sacrificed by cervical dislocation after which their tumors were harvested and weighed for antitumor effect assessment. Antitumor effect of treatments was evaluated measuring the tumor volume and calculating the percentage of how much the tumor volume grew in comparison to the starting tumor volume which was set arbitrarily for all tumors as 100% at the start of treatment."}, "[6]": {"details": "conjugates 10 mg Dau content/kg"}}, "data": [{"smiles": "CCCC[C@H](NC(=O)[C@H](CO)NC(=O)[C@H](Cc1ccc(O)cc1)NC(=O)[C@H](CO)NC(=O)CON=C(C)[C@]1(O)Cc2c(O)c3c(c(O)c2[C@@H](O[C@H]2C[C@H](N)[C@H](O)[C@H](C)O2)C1)C(=O)c1c(OC)cccc1C3=O)C(=O)N[C@@H](CCC(=O)O)C(=O)N[C@@H](Cc1c[nH]cn1)C(=O)N[C@@H](Cc1ccccc1)C(=O)N[C@@H](CCCNC(=N)N)C(=O)N[C@@H](Cc1c[nH]c2ccccc12)C(=O)NCC(=O)N[C@@H](CCCCNC(=O)CON=C(C)[C@]1(O)Cc2c(O)c3c(c(O)c2[C@@H](O[C@H]2C[C@H](N)[C@H](O)[C@H](C)O2)C1)C(=O)c1c(OC)cccc1C3=O)C(=O)N1CCC[C@H]1C(=O)N[C@H](C(N)=O)C(C)C", "note": "[Conj3, Dau=Aoa-SYSNleEHFRWGK(Dau=Aoa)PV-NH2]", "values": [{"measurement": "IC50", "setting": "[1]", "value": "2 ± 0.7", "unit": "µM"}, {"measurement": "Relative Potency", "setting": "[1]", "value": 0.0130}, {"measurement": "IC50", "setting": "[2]", "value": "11 ± 0.8", "unit": "µM"}, {"measurement": "Relative Potency", "setting": "[2]", "value": 0.0108}, {"measurement": "IC50", "setting": "[3]", "value": "3.6 ± 0.2", "unit": "µM"}, {"measurement": "Relative Potency", "setting": "[3]", "value": 0.0138}, {"measurement": "IC50", "setting": "[4]", "value": "3 ± 0.8", "unit": "µM"}, {"measurement": "Relative Potency", "setting": "[4]", "value": 0.0133}, {"measurement": "Increase of animal bodyweight at the end of the experiment in comparison to the start", "setting": "[5]", "value": 18.2, "unit": "%"}, {"measurement": "Tumor weight increased in comparison to the control", "setting": "[5]; after termination (day 20), 10 mg Dau content/kg i.p.", "value": 9.2, "unit": "%"}, {"measurement": "Animal body weight (Table S1)", "setting": "[5]; [6]", "value": "+18.2%"}, {"measurement": "Tumor weigh in % (Table S1)", "setting": "[5]; [6]", "value": "+9.2%"}, {"measurement": "Tumor volume in % (Table S1)", "setting": "[5]; [6]", "value": -14.7, "unit": "%"}, {"measurement": "Tumor volume in mm3 (Table S1)", "setting": "[5]; [6]", "value": "+12.3%"}, {"measurement": "Average tumor volume (mm^3) higher compared to the control group", "setting": "[5]; end of experiment (day 20), 10 mg Dau content/kg i.p.", "value": 12.3, "unit": "%"}]}, {"smiles": "CCCC[C@H](NC(=O)[C@H](CO)NC(=O)[C@H](Cc1ccc(O)cc1)NC(=O)[C@H](CO)NC(=O)CON=C(C)[C@]1(O)Cc2c(O)c3c(c(O)c2[C@@H](O[C@H]2C[C@H](N)[C@H](O)[C@H](C)O2)C1)C(=O)c1c(OC)cccc1C3=O)C(=O)N[C@@H](CCC(=O)O)C(=O)N[C@@H](Cc1c[nH]cn1)C(=O)N[C@@H](Cc1ccccc1)C(=O)N[C@@H](CCCNC(=N)N)C(=O)N[C@@H](Cc1c[nH]c2ccccc12)C(=O)NCC(=O)N[C@@H](CCCCN)C(=O)N1CCC[C@H]1C(=O)N[C@H](C(N)=O)C(C)C", "note": "[Conj1, Dau=Aoa-SYSNleEHFRWGKPV-NH2]", "values": [{"measurement": "IC50", "setting": "[1]", "value": "2.9 ± 0.6", "unit": "µM"}, {"measurement": "Relative Potency", "setting": "[1]", "value": 0.0090}, {"measurement": "IC50", "setting": "[2]", "value": "12.8 ± 1.6", "unit": "µM"}, {"measurement": "Relative Potency", "setting": "[2]", "value": 0.0093}, {"measurement": "IC50", "setting": "[3]", "value": "9.9 ± 1.5", "unit": "µM"}, {"measurement": "Relative Potency", "setting": "[3]", "value": 0.0050}, {"measurement": "IC50", "setting": "[4]", "value": "9.8 ± 5.4", "unit": "µM"}, {"measurement": "Relative Potency", "setting": "[4]", "value": 0.0041}, {"measurement": "Increase of animal bodyweight at the end of the experiment in comparison to the start", "setting": "[5]", "value": 12.9, "unit": "%"}, {"measurement": "Tumor growth inhibition based on tumor weight, in comparison to the control group", "setting": "[5]; after termination (day 20), conjugates 10 mg Dau content/kg, free Dau 1 mg/kg i.p.", "value": 2.4, "unit": "%"}, {"measurement": "Animal body weight (Table S1)", "setting": "[5]; [6]", "value": "+12.9%"}, {"measurement": "Tumor weigh in % (Table S1)", "setting": "[5]; [6]", "value": -2.4, "unit": "%"}, {"measurement": "Tumor volume in % (Table S1)", "setting": "[5]; [6]", "value": "+9.7%"}, {"measurement": "Tumor volume in mm3 (Table S1)", "setting": "[5]; [6]", "value": -23.8, "unit": "%"}, {"measurement": "Tumor volume in percentage (start set as 100%) increased in comparison to the control group", "setting": "[5]; end of experiment, Conj1 10 mg Dau content/kg, free Dau 1 mg/kg i.p.", "value": 9.7, "unit": "%"}]}]}
